Literature values in patent publication US20230210769A1, “METHODS OF TREATMENT USING NICLOSAMIDE” (priority 2020, published 2023).

What was measured:
[1] = tested on: SARS-CoV-2 (a.k.a. 2019-nCoV)
[2] = tested on: SARS-CoV, influenza virus, MERS-CoV, ZIKV, JEV, HCV, EBOV, HRVs, CHIKV, HAdV, EBV

SMILES: O=C(Nc1ccc([N+](=O)[O-])cc1Cl)c1cc(Cl)ccc1O [niclosamide, 5-chloro-N-(2-chloro-4-nitrophenyl)-2-hydroxybenzamide]
- anti-viral effects against SARS-CoV-2 [1]: anti-viral effects
- anti-viral effects in vitro against various viral infections [2]: anti-viral effects in vitro
